Experiments:
Type in all cases: in vivo
[1] = test system: barnyardgrass (Echinochloa crus-galli); assay: Test A preemergence, barnyardgrass; settings: 0 to 100 scale; for Barnyardgrass plant response rating: 0 is no effect, 100 is complete control
How it was run: (§1)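 Using a solvent/surfactant formulation, test chemicals were sprayed onto freshly seeded soil or onto 2–10 cm seedlings at the one- to two-leaf stage. Visual injury ratings on a 0–100 scale were made about 10 d later in the greenhouse.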

kochia (Kochia scoparia) [2] = assay: Test A preemergence, kochia; settings: 0 to 100 scale; for Kochia plant response rating: 0 is no effect, 100 is complete control
How it was run: as §1

[3] = test system: ragweed (common ragweed, Ambrosia elatior); assay: Test A preemergence, ragweed; settings: 0 to 100 scale; for Ragweed plant response rating: 0 is no effect, 100 is complete control
How it was run: as §1

[4] = test system: ryegrass, Italian (Lolium multiflorum); assay: Test A preemergence, Italian ryegrass; settings: 0 to 100 scale; for Ryegrass, Italian plant response rating: 0 is no effect, 100 is complete control
How it was run: as §1

[5] = test system: foxtail, green (Setaria viridis); assay: Test A preemergence, green foxtail; settings: 0 to 100 scale
Text: (§2) Seeds of plant species selected from barnyardgrass (Echinochloa crus-galli), kochia (Kochia scoparia), ragweed (common ragweed, Ambrosia elatior), ryegrass, Italian (Lolium multiflorum), foxtail, giant (Setaria faberii), foxtail, green (Setaria viridis), and pigweed (Amaranthus retroflexus) were planted into a blend of loam soil and sand and treated preemergence with a directed soil spray using test chemicals formulated in a non-phytotoxic solvent mixture which included a surfactant.
(§3) At the same time, plants selected from these weed species and also wheat (Triticum aestivum), corn (Zea mays), blackgrass (Alopecurus myosuroides), and galium (catchweed bedstraw, Galium aparine) were planted in pots containing the same blend of loam soil and sand and treated with postemergence applications of test chemicals formulated in the same manner. Plants ranged in height from 2 to 10 cm and were in the one- to two-leaf stage for the postemergence treatment. Treated plants and untreated controls were maintained in a greenhouse for approximately 10 d, after which time all treated plants were compared to untreated controls and visually evaluated for injury. Plant response ratings, summarized in Table A, are based on a 0 to 100 scale where 0 is no effect and 100 is complete control. A dash (-) response means no test result.

[6] = test system: pigweed (Amaranthus retroflexus); assay: Test A preemergence, pigweed; settings: 0 to 100 scale; for Pigweed plant response rating: 0 is no effect, 100 is complete control
How it was run: as §1

[7] = test system: barnyardgrass (Echinochloa crus-galli); assay: Test A postemergence, barnyardgrass; settings: 0 to 100 scale
How it was run: as §1

kochia (Kochia scoparia) [8] = assay: Test A postemergence, kochia; settings: 0 to 100 scale
How it was run: as §1

[9] = test system: ragweed (common ragweed, Ambrosia elatior); assay: Test A postemergence, ragweed; settings: 0 to 100 scale
How it was run: as §1

[10] = test system: ryegrass, Italian (Lolium multiflorum); assay: Test A postemergence, Italian ryegrass; settings: 0 to 100 scale
How it was run: as §1

[11] = test system: foxtail, green (Setaria viridis); assay: Test A postemergence, green foxtail; settings: 0 to 100 scale
Text: as §2, §3

[12] = test system: pigweed (Amaranthus retroflexus); assay: Test A postemergence, pigweed; settings: 0 to 100 scale
How it was run: as §1

[13] = test system: wheat (Triticum aestivum); assay: Test A postemergence, wheat; settings: 0 to 100 scale
How it was run: as §1

corn (Zea mays) = assay: Test A postemergence, corn; settings: 0 to 100 scale
How it was run: as §1

[14] = test system: blackgrass (Alopecurus myosuroides); assay: Test A postemergence, blackgrass; settings: 0 to 100 scale
How it was run: as §1

[15] = test system: galium (catchweed bedstraw, Galium aparine); assay: Test A postemergence, galium; settings: 0 to 100 scale
How it was run: as §1

rice (Oryza sativa) = assay: Test B flooded paddy test, rice; settings: Flood, 250 g ai/ha, applied to paddy water, 2-leaf stage, visual evaluation after 13 to 15 d
How it was run: (§4)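 Rating: 0 = no effect, 100 = complete control, visual, relative to untreated plants. Conditions: 2-leaf stage, 3 cm flood kept constant, compound put directly into water, 13–15 d greenhouse.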

[16] = test system: sedge, umbrella (small-flower umbrella sedge, Cyperus difformis); assay: Test B flooded paddy test, umbrella sedge; settings: Flood, 250 g ai/ha, applied to paddy water, 2-leaf stage, visual evaluation after 13 to 15 d
How it was run: as §4

[17] = test system: ducksalad (Heteranthera limosa); assay: Test B flooded paddy test, ducksalad; settings: Flood, 250 g ai/ha, applied to paddy water, 2-leaf stage, visual evaluation after 13 to 15 d
How it was run: as §4

[18] = test system: barnyardgrass (Echinochloa crus-galli); assay: Test B flooded paddy test, barnyardgrass; settings: Flood, 250 g ai/ha, applied to paddy water, 2-leaf stage, visual evaluation after 13 to 15 d
How it was run: as §4

[19] = test system: foxtail, giant (Setaria faberii); assay: Test A preemergence, giant foxtail; settings: 0 to 100 scale, 0 is no effect, 100 is complete control
How it was run: as §1

[20] = test system: foxtail, giant (Setaria faberii); assay: Test A postemergence, giant foxtail; settings: 0 to 100 scale, 0 no effect, 100 complete control
How it was run: as §1

[21] = 31 g ai/ha, 0 no effect, 100 complete control
[22] = 125 g ai/ha, 0 no effect, 100 complete control

CC(CCc1ccccc1)Nc1ncc(C(F)(F)F)c(N)n1 (stereo not drawn) [Compound 23]
Plant response rating, Barnyardgrass ([1]; 125 g ai/ha): 0 | Plant response rating, Barnyardgrass ([1]; 500 g ai/ha): 0 | Plant response rating, Kochia (kochia (Kochia scoparia) [2]; 125 g ai/ha): 0 | Plant response rating, Kochia (kochia (Kochia scoparia) [2]; 500 g ai/ha): 0 | Plant response rating, Ragweed ([3]; 125 g ai/ha): 0 | Plant response rating, Ragweed ([3]; 500 g ai/ha): 0 | Plant response rating, Ryegrass, Italian ([4]; 125 g ai/ha): 0 | Plant response rating, Ryegrass, Italian ([4]; 500 g ai/ha): 0 | Plant response rating, Foxtail, Green ([5]; 125 g ai/ha): 0 | Plant response rating, Foxtail, Green ([5]; 500 g ai/ha): 0 | Plant response rating, Pigweed ([6]; 125 g ai/ha): 0 | Plant response rating, Pigweed ([6]; 500 g ai/ha): 50 | Plant response rating, Barnyardgrass ([7]; 125 g ai/ha): 0 | Plant response rating, Barnyardgrass ([7]; 500 g ai/ha): 0 | Plant response rating, Kochia (kochia (Kochia scoparia) [8]; 125 g ai/ha): 0 | Plant response rating, Kochia (kochia (Kochia scoparia) [8]; 500 g ai/ha): 0 | Plant response rating, Ragweed ([9]; 125 g ai/ha): 0 | Plant response rating, Ragweed ([9]; 500 g ai/ha): 0 | Plant response rating, Ryegrass, Italian ([10]; 125 g ai/ha): 0 | Plant response rating, Ryegrass, Italian ([10]; 500 g ai/ha): 0 | Plant response rating, Foxtail, Green ([11]; 125 g ai/ha): 0 | Plant response rating, Foxtail, Green ([11]; 500 g ai/ha): 0 | Plant response rating, Pigweed ([12]; 125 g ai/ha): 0 | Plant response rating, Pigweed ([12]; 500 g ai/ha): 0 | Plant response rating, Wheat ([13]; 125 g ai/ha): 0 | Plant response rating, Wheat ([13]; 500 g ai/ha): 0 | Plant response rating, Corn (corn (Zea mays); 125 g ai/ha): 0 | Plant response rating, Corn (corn (Zea mays); 500 g ai/ha): 0 | Plant response rating, Blackgrass ([14]; 125 g ai/ha): 0 | Plant response rating, Blackgrass ([14]; 500 g ai/ha): 0 | Plant response rating, Galium ([15]; 125 g ai/ha): 0 | Plant response rating, Galium ([15]; 500 g ai/ha): 0 | Plant response rating, Rice (0 to 100 scale, 0 is no effect, 100 is complete control) (rice (Oryza sativa)): 0 | Plant response rating, Sedge, Umbrella (0 to 100 scale, 0 is no effect, 100 is complete control) [16]: 0 | Plant response rating, Ducksalad (0 to 100 scale, 0 is no effect, 100 is complete control) [17]: 0 | Plant response rating, Barnyardgrass (0 to 100 scale, 0 is no effect, 100 is complete control) [18]: 0

C[C@@H](Nc1ncc(C(F)(F)F)c(N)n1)c1cc2c(F)ccc(F)c2s1 [Compound 114]
Barnyardgrass plant response rating ([1]; 31 g ai/ha): 0 | Barnyardgrass plant response rating ([1]; 125 g ai/ha): 40 | Kochia plant response rating (kochia (Kochia scoparia) [2]; 31 g ai/ha): 30 | Kochia plant response rating (kochia (Kochia scoparia) [2]; 125 g ai/ha): 60 | Ragweed plant response rating ([3]; 31 g ai/ha): 40 | Ragweed plant response rating ([3]; 125 g ai/ha): 60 | Ryegrass, Italian plant response rating ([4]; 31 g ai/ha): 30 | Ryegrass, Italian plant response rating ([4]; 125 g ai/ha): 50 | Foxtail, Giant plant response rating ([19]; 31 g ai/ha): 10 | Foxtail, Giant plant response rating ([19]; 125 g ai/ha): 70 | Pigweed plant response rating ([6]; 31 g ai/ha): 50 | Pigweed plant response rating ([6]; 125 g ai/ha): 100 | Plant response rating, Barnyardgrass [7, 21]: 10 | Plant response rating, Barnyardgrass [7, 22]: 30 | Plant response rating, Kochia (kochia (Kochia scoparia) [8]; [21]): 50 | Plant response rating, Kochia (kochia (Kochia scoparia) [8]; [22]): 80 | Plant response rating, Ragweed [9, 21]: 40 | Plant response rating, Ragweed [9, 22]: 80 | Plant response rating, Ryegrass, Italian [10, 21]: 0 | Plant response rating, Ryegrass, Italian [10, 22]: 40 | Plant response rating, Foxtail, Giant ([20]; 31 g ai/ha): 10 | Plant response rating, Foxtail, Giant ([20]; 125 g ai/ha): 100 | Plant response rating, Pigweed [12, 21]: 100 | Plant response rating, Pigweed [12, 22]: 100 | Plant response rating, Wheat [13, 21]: 0 | Plant response rating, Wheat [13, 22]: 30 | Plant response rating, Corn (corn (Zea mays); [21]): 10 | Plant response rating, Corn (corn (Zea mays); [22]): 30 | Plant response rating, Blackgrass [14, 21]: 0 | Plant response rating, Blackgrass [14, 22]: 30 | Plant response rating, Galium [15, 21]: 60 | Plant response rating, Galium [15, 22]: 90 | Plant response rating, Rice (0 to 100 scale, 0 is no effect, 100 is complete control) (rice (Oryza sativa)): 20 | Plant response rating, Sedge, Umbrella (0 to 100 scale, 0 is no effect, 100 is complete control) [16]: 80 | Plant response rating, Ducksalad (0 to 100 scale, 0 is no effect, 100 is complete control) [17]: 65 | Plant response rating, Barnyardgrass (0 to 100 scale, 0 is no effect, 100 is complete control) [18]: 65

Source: patent US20220119354A1, “DIAMINO-SUBSTITUTED PYRIDINES AND PYRIMIDINES AS HERBICIDES” (FMC Corporation, priority 2019, published 2022)
